Laboratory results as given in US5298494A, “Monosaccharides having anti-proliferation and anti-inflammatory activity, compositions and uses thereof” (Greenwich Pharmaceuticals Incorporated, priority 1993, dated 1994).
Read-outs that look alike come from different tables or passages of the source.

Legend:
[1] = system: T cell proliferation in mouse spleen cell mixed lymphocyte cultures; test: Mixed Lymphocyte Reaction (MLR) assay; format: cell-based, mouse (Balb/c responder, C57B1/6 stimulator); conditions: for inhibition at 3 µM / inhibition at 10 µM / inhibition at 30 µM / inhibition at 100 µM / inhibition at 300 µM: Mus musculus, Lymphocyte, read-out: % Change From Control, MLR
Source text: The pharmacologic assays performed to determine the immunomodulatory effects of the experimental compounds in vitro include the Mixed Lymphocyte Reaction (MLR) and the ConA blastogenesis assay. These assays were used to determine the inhibitory effects of the compounds of the invention on T lymphocyte activation and proliferation. Since inflammation at the cellular level is characterized by T lymphocyte recruitment, activation and proliferation, these assays are appropriate to use as screens for novel compounds having therapeutic potential in the treatment of disorders in which inflammatory mechanisms are involved.
The MLR is a classical assay used to measure T cell function by studying the proliferative response of T cells which are activated in vitro by genetically disparate stimulator cells. This is accomplished by co-culturing spleen cells from two different strains of mice. Splenic T cell proliferation occurs as a result of cellular activation signals generated by the ongoing cellular interactions.
Balb/c mice were euthanised by cervical dislocation and their spleens removed. Single cell suspensions of the spleens were prepared in culture medium (hepes buffered RPMI-1640 supplemented with 10% fetal calf serum, 2mM glutamine, 500 units penicillin/ streptomycin, and 4×10^-5 M 2-mercaptoethanol) using a Teflon pestle. The cells were centrifuged at 1500 rpm and the pellets resuspended in ACT (0.15M tris, 0.14M ammonium chloride, pH 7.2) in order to lyse the red blood cells. After a 5 minute incubation in a 37 C. waterbath, the cells were resuspended in culture medium and counted. C57B1/6 spleen cells which were used as stimulator cells, were also prepared by this method. The stimulator cells were treated with 100 ug/ml of mitomycin c for 1 hour at 37 C. (to inhibit stimulatory cell proliferation) and were then washed 5 times in culture medium. The proliferative responses were measured by culturing 2.5×10^5 responder cells with 5×10^5 stimulatory cells in 96 well microtiter plates in the presence or absence of various doses of test compounds or vehicle (DMSO). Syngeneic control cultures using mitomycin c treated Balb/c spleen cells as stimulator cells were also run. All cultures were run in triplicate.
Solutions of compounds of the present invention in DMSO were prepared at a stock concentration of 120 Mm. Dilutions were made in culture medium to the following concentrations: 3, 10, 30, 100, and 300 uM. The vehicle (DMSO) was used as a negative control.
After incubation of for 5 days at 37 C. with 5% CO2, the amount of cell proliferation was measured by adding 20 ul of MTT (3-[4,5-dimethylthiazol-2-yl]-2,5diphenyl-tetrazolium bromide) (10 mg/ml in phosphate buffered saline) to each well. Plates were incubated for 4 hours at 37 C., after which 180 ul of 10% sodium dodecyl sulphate in phosphate buffered saline was added. After an overnight incubation, the optical density (OD) of each well was read on a Molecular Devices microplate reader at 570-650 nm. The results were determined by calculating the difference between the means of the allogeneic cultures and the means of the syngenic cultures for each test article concentration. Differences of the test article groups were compared to the control group and the percent change from the control was determined.

[2] = system: T lymphocytes (normal mouse spleen cells) stimulated with ConA; test: Mouse Spleen Cell ConA Blastogenesis Assay; format: cell-based, mouse (C57Bl/6); conditions: Mus musculus, T-lymphocyte; for inhibition at 0.1 µg/mL: compound 0.1 ug/ml; for inhibition at 1 µg/mL: compound 1 ug/ml; for inhibition at 2.5 µg/mL: compound 2.5 ug/ml; for inhibition at 10 µg/mL: compound 10 ug/ml; for inhibition at 25 µg/mL: compound 25 ug/ml; for inhibition at 100 µg/mL: compound 100 ug/ml
[3] = ConA 1 ug/ml, 0.01 ug/ml, read-out: % Change from Control (Table II)
[4] = ConA 1 ug/ml, compound 0.01 ug/ml, read-out: % change from control, ConA blastogenic response
[5] = ConA 1 ug/ml, read-out: % change from control, ConA blastogenic response
[6] = ConA 4 ug/ml, 0.01 ug/ml, read-out: % Change from Control (Table II)
[7] = ConA 4 ug/ml, compound 0.01 ug/ml, read-out: % change from control, ConA blastogenic response
[8] = ConA 4 ug/ml, read-out: % change from control, ConA blastogenic response

Row | SMILES | Mean O.D. Allogenic ([1]; 3 um) | Mean O.D. Syngeneic ([1]; 3 um) | Mean O.D. Allogenic ([1]; 10 um) | Mean O.D. Syngeneic ([1]; 10 um) | Mean O.D. Allogenic ([1]; 30 um) | Mean O.D. Syngeneic ([1]; 30 um) | Mean O.D. Allogenic ([1]; 100 um) | Mean O.D. Syngeneic ([1]; 100 um) | Mean O.D. Allogenic ([1]; 300 um) | Mean O.D. Syngeneic ([1]; 300 um) | inhibition at 3 µM ([1]; 3 um) | inhibition at 10 µM ([1]; 10 um) | inhibition at 30 µM ([1]; 30 um) | inhibition at 100 µM ([1]; 100 um) | inhibition at 300 µM ([1]; 300 um) | inhibition at 0.01 µg/mL [2, 3] | inhibition at 0.01 µg/mL [2, 4] | inhibition at 0.1 µg/mL [2, 5] | inhibition at 1 µg/mL [2, 5] | inhibition at 2.5 µg/mL [2, 5] | further results
1 | CCCCC/C=C\COC[C@H]1O[C@](COC/C=C\CCCCC)(OC)[C@@H](O)[C@@H]1O [Ig, methyl 1,6-di-O-(cis,2-octenyl)-α-D-fructofuranoside] | 0.412 O.D. | 0.155 O.D. | 0.421 O.D. | 0.182 O.D. | 0.399 O.D. | 0.157 O.D. | 0.419 O.D. | 0.173 O.D. | 0.474 O.D. | 0.037 O.D. | -34% | -24% | -26% | -28% | -81% | 3% | -10% | 10% | 4% | 11% | inhibition at 10 µg/mL [2, 5]: 87%; inhibition at 25 µg/mL [2, 5]: 84%; inhibition at 100 µg/mL [2, 5]: 99%; inhibition at 0.01 µg/mL [2, 6]: -7%; inhibition at 0.01 µg/mL [2, 7]: -12%; inhibition at 0.1 µg/mL [2, 8]: 9%; inhibition at 1 µg/mL [2, 8]: 5%; inhibition at 2.5 µg/mL [2, 8]: 20%; inhibition at 10 µg/mL [2, 8]: 73%; inhibition at 25 µg/mL [2, 8]: 77%; inhibition at 100 µg/mL [2, 8]: 100%
2 | CCCCCCCO[C@@H]1[C@@H](CO)O[C@@]2(OC)COC(C)(C)O[C@@H]12 [Ic, methyl 1,3-O-isopropylidene-4-O-heptyl-α-D-fructofuranoside] | 0.207 O.D. | 0.096 O.D. | 0.198 O.D. | 0.106 O.D. | 0.200 O.D. | 0.148 O.D. | 0.163 O.D. | 0.077 O.D. | 0.034 O.D. | 0.159 O.D. | -34% | -11% | 37% | -4% | 251% | -11% | -8% | 3% | 19% | 21% | inhibition at 10 µg/mL [2, 5]: 79%; inhibition at 25 µg/mL [2, 5]: 99%; inhibition at 100 µg/mL [2, 5]: 100%; inhibition at 0.01 µg/mL [2, 6]: 8%; inhibition at 0.01 µg/mL [2, 7]: -14%; inhibition at 0.1 µg/mL [2, 8]: 8%; inhibition at 1 µg/mL [2, 8]: 35%; inhibition at 2.5 µg/mL [2, 8]: 51%; inhibition at 10 µg/mL [2, 8]: 91%; inhibition at 25 µg/mL [2, 8]: 99%; inhibition at 100 µg/mL [2, 8]: 100%
